# From patent US9475842B2, “Hexadepsipeptide analogues as anticancer compounds” (PIRAMAL ENTERPRISES LIMITED, priority 2012, dated 2016)
# What was measured:
# [1] = Solubility (physical properties); type: physicochemical
# [2] = tested on: cleaved caspase 3 in HeLa cells; experiment: Protein expression by high content screening (Cellomics); type: cell-based, human; settings: for Fold activation with respect to control cells, Cleaved Caspase 3: HeLa cells, after 3 hours
# Description: (§1) Protein expressions of cyclin D, nuclear factor-kappa B (p65) [NFkB (p65)], ribosomal protein S6 (pS6), tumor protein 53 (p53), protein c-jun N-terminal kinase (pJNK), cleaved caspase 9, cleaved caspase 3 and cleaved poly(ADP-ribose) polymerase (PARP) was carried out in HeLa cells [referred to in step 1 of example 16] by Cellomics high content imaging. These primary antibodies were purchased from Santacruz Biotechnology, USA. Briefly 1×10^4 cells were seeded in 96 well tissue culture grade black plate with transparent bottom (Nunc, USA), and allowed to adhere for 24 h, and then replaced with fresh media, and cells were treated with 0.01 μM, 0.003 μM and 0.0003 μM concentrations of compound of Formula (1) [referred to in step 2 of example 16] and incubated for 1 h and 3 h respectively. After respective time point, cells were fixed with 3.7% formaldehyde (Sigma St. Louis, Mo.) for 10 minutes at RT, followed by permeabilization with 0.15% Triton X-100 (Sigma St. Louis, Mo.) for 10 minutes. Then the cells were blocked with 5% Bovine Serum Albumin for 2 hours. After blocking step, specific primary antibodies were added for 1 h, and primary antibodies of different protein were localized by secondary antibody labeled with Dylight548 (red) (Thermofisher, USA). Following secondary incubation, the nucleus was stained with Hoechst 3342 (blue) (Sigma, USA). Immunofluorescence was determined by scanning the plates on Cellomics Array Scan® VTI HCS Reader (Thermo-Fisher Scientific Inc., Waltham, Mass.). All the data points were analyzed using the Compartmental Analysis bio-algorithm of Cellomics and quantitative data were expressed as % activation in comparison to the untreated cells. 1000 cells were counted for each replicate well and the results were presented as an average±S.E.
# [3] = tested on: cleaved caspase 9 in HeLa cells; experiment: as above; type: cell-based, human; settings: for Fold activation with respect to control cells, Cleaved Caspase 9: HeLa cells, after 3 hours
# Description: as §1
# [4] = tested on: ribosomal protein S6 (pS6) in HeLa cells; experiment: as above; type: cell-based, human; settings: for Fold down regulation with respect to control cells, pS6: HeLa cells, after 3 hours
# Description: as §1
# cyclin D in HeLa cells = experiment: as above; type: cell-based, human; settings: for Fold down regulation with respect to control cells, Cyclin D: HeLa cells, after 3 hours
# Description: as §1
# [5] = tested on: cleaved poly(ADP-ribose) polymerase (PARP) in HeLa cells; experiment: as above; type: cell-based, human; settings: for Fold activation with respect to control cells, Cleaved PARP: HeLa cells, after 3 hours
# Description: as §1
# [6] = tested on: protein c-jun N-terminal kinase (pJNK) in HeLa cells; experiment: as above; type: cell-based, human; settings: for Fold activation with respect to control cells, pJNK: HeLa cells, after 3 hours
# Description: as §1
# [7] = tested on: nuclear factor-kappa B (p65) [NFkB (p65)] in HeLa cells; experiment: as above; type: cell-based, human; settings: for Fold down regulation with respect to control cells, NFkB (p65): HeLa cells, after 3 hours
# Description: as §1
# [8] = tested on: tumor protein 53 (p53) in HeLa cells; experiment: as above; type: cell-based, human; settings: for Fold activation with respect to control cells, P53: HeLa cells, after 3 hours
# Description: as §1
# HeLa cancer cells = experiment: Detection of FITC Annexin V apoptosis by flow cytometry; type: cell-based, human; settings: for cells positive for annexin V staining (M2): HeLa cells, 12 hrs
# From the text: The annexin V assay, a classical technique for detecting apoptosis, is the most commonly used method for detecting apoptosis by flow cytometry. One of the earliest features of apoptosis is the translocation of phosphatidylserine from the inner to the outer leaflet of the plasma membrane, thereby exposing phosphatidylserine to the external environment.
# Annexin V (cat. no. 556420, BD Biosciences, USA) binds to phosphatidylserine exposed on the cell surface and identifies cells at an earlier stage of apoptosis. • a) HeLa cancer cells [referred to in step 1 of example 16] were seeded at a density of 0.5×10^6 cells/2000 μL well, in a tissue culture grade […] and allowed them to recover for 12 hrs in a humidified 5±0.2% CO2 incubator at 37±0.5° C. • b) After 12 hrs, 5 μL of 200× (200 times higher than required concentration is represented as 200×) compound of Formula (1a) dissolved in DMSO [step 2, example 16] was added to above tissue culture plate seeded with HeLa cancer cells. The final test concentration of the compound of Formula (1a) was 0.0003 μM, 0.003 μM and 0.01 μM. […] The population present in M1 and M2 were determined using FACS analysis.
smiles,measurement,setting,value
"CC(C)CC1CCC(O)(C(C)(O)C(=O)NC2C(=O)N3NCCCC3C(=O)N(O)C(C)C(=O)NCC(=O)N3NCCCC3C(=O)N(O)C(C)C(=O)OC2C(C)C)OC1C (centres unmarked) [Formula (1a), N-(6,18-dihydroxy-22-isopropyl-7,19-dimethyl-5,8,11,17,20,24-hexaoxotetracosa hydrodipyridazino[6,1-f:6′,1′-o][1,4,7,10,13,16]oxapentaazacyclononadecin-23-yl)-2-hydroxy-2-(2-hydroxy-5-isobutyl-6-methyltetrahydro-2H-pyran-2-yl)propanamide]",Solubility in organic solvents,"[1]; chloroform, ethyl acetate and methanol","Soluble in chloroform, ethyl acetate and methanol;"
same,Solubility in water,[1]; water,insoluble in water
same,"Fold activation with respect to control cells, Cleaved Caspase 3",[2]; 0.0003 μM,−0.04 fold
same,"Fold activation with respect to control cells, Cleaved Caspase 3",[2]; 0.003 μM,0.53 fold
same,"Fold activation with respect to control cells, Cleaved Caspase 3",[2]; 0.01 μM,1.62 fold
same,effect on cleaved caspase 3 (in words),"[2]; cancer cells, conclusion",prominent upregulation
same,"Fold activation with respect to control cells, Cleaved Caspase 9",[3]; 0.0003 μM,−0.04 fold
same,"Fold activation with respect to control cells, Cleaved Caspase 9",[3]; 0.003 μM,0.53 fold
same,"Fold activation with respect to control cells, Cleaved Caspase 9",[3]; 0.01 μM,2.22 fold
same,effect on cleaved caspase 9 expression (in words),"[3]; cancer cells, conclusion",up-regulates
same,"Fold down regulation with respect to control cells, pS6",[4]; 0.0003 μM,−0.42 fold
same,"Fold down regulation with respect to control cells, pS6",[4]; 0.003 μM,−0.56 fold
same,"Fold down regulation with respect to control cells, pS6",[4]; 0.01 μM,−1.97 fold
same,effect on pS6 protein expression (in words),"[4]; cancer cells, conclusion",significantly downregulates
same,"Fold down regulation with respect to control cells, Cyclin D",cyclin D in HeLa cells; 0.0003 μM,−0.57 fold
same,"Fold down regulation with respect to control cells, Cyclin D",cyclin D in HeLa cells; 0.003 μM,−0.89 fold
same,"Fold down regulation with respect to control cells, Cyclin D",cyclin D in HeLa cells; 0.01 μM,−3.81 fold
same,effect on cyclin D protein expression (in words),"cyclin D in HeLa cells; cancer cells, conclusion",significantly downregulates
same,"Fold activation with respect to control cells, Cleaved PARP",[5]; 0.0003 μM,0.52 fold
same,"Fold activation with respect to control cells, Cleaved PARP",[5]; 0.003 μM,1.09 fold
same,"Fold activation with respect to control cells, Cleaved PARP",[5]; 0.01 μM,1.51 fold
same,effect on cleaved PARP (in words),"[5]; cancer cells, conclusion",prominent upregulation
same,"Fold activation with respect to control cells, pJNK",[6]; 0.0003 μM,0.55 fold
same,"Fold activation with respect to control cells, pJNK",[6]; 0.003 μM,0.85 fold
same,"Fold activation with respect to control cells, pJNK",[6]; 0.01 μM,2.42 fold
same,effect on pJNK expression (in words),"[6]; cancer cells, conclusion",up-regulates
same,"Fold down regulation with respect to control cells, NFkB (p65)",[7]; 0.0003 μM,−0.46 fold
same,"Fold down regulation with respect to control cells, NFkB (p65)",[7]; 0.003 μM,−0.80 fold
same,"Fold down regulation with respect to control cells, NFkB (p65)",[7]; 0.01 μM,−1.86 fold
same,effect on NFkB (p65) protein expression (in words),"[7]; cancer cells, conclusion",significantly downregulates
same,"Fold activation with respect to control cells, P53",[8]; 0.0003 μM,−0.15 fold
same,"Fold activation with respect to control cells, P53",[8]; 0.003 μM,0.55 fold
same,"Fold activation with respect to control cells, P53",[8]; 0.01 μM,2.27 fold
same,effect on p53 expression (in words),"[8]; cancer cells, conclusion",up-regulates
same,induction of apoptosis (in words),"HeLa cancer cells; HeLa cancer cells, conclusion",induces cell death through apoptosis
same,cells positive for annexin V staining (M2),HeLa cancer cells; 0.0003 μM,33.80%
same,cells positive for annexin V staining (M2),HeLa cancer cells; 0.003 μM,40.27%
same,cells positive for annexin V staining (M2),HeLa cancer cells; 0.01 μM,59.05%
